Assay: recombinant barcode read abundance after kanamycin selection (control-corrected) (log10(CPM+1)); higher = more efficient recombination; sequences stand for … in AGTGCAGAGAAAATCGGCCAGTTTTCTCTGCCTGCAGTCCGCATGCCGT…AGATTTATGCAGCGGACTGCCTTTCTCCCAAAGTGATAAACCGGACAGTATCATGGACCGGTTTTCCCGGTAATCCGTATTTGCAAGGTTGGTTTCACT; site = the 11-nt target
Method in brief: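 Oligos holding a promoter, target, barcode and the J23119-driven first 104 bases of the bridge RNA were Gibson-cloned into a vector that supplied the other 73 bp plus a T7-inducible recombinase. This library was co-electroporated with a donor plasmid into E. coli. Two replicates went on chloramphenicol/ampicillin LB agar (control) and two on chloramphenicol/ampicillin/kanamycin with 0.1 mM IPTG. Recombination efficiency is read from averaged, control-corrected barcode counts per million at recombinant junctions, reported as log10(CPM+1).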
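Also: IS621 recombinase and bridge RNA in Escherichia coli cells.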

Sequence | recombinant barcode read abundance (log10)
CGGCGTCCTTGGGTTCTAACCTGTTGCCG (site CGGCGTCCTAG) | 0.498
CGGCGTCCTTGGGTTCTAACCTGTTGCCG (site CGGCGTCCTCG) | 0.197
CGGCTGTCTTGGGTTCTAACCTGTTGCCT (site CGGCTGTCTAG) | 1.28
CGGCTGTCTTGGGTTCTAACCTGTTGCCT (site GTAGGAACTCA) | 0.0275
CGGCTTCCTTGGGTTCTAACCTGTTGCTT (site CGGCCTACTAA) | 0.209
CGGCTTCCTTGGGTTCTAACCTGTTGCTT (site CGGCTTCCTAA) | 0.104
CGGGCCTCTTGGGTTCTAACCTGTTGCAC (site CGGGCCTCTGT) | 3.19
CGGGCCTCTTGGGTTCTAACCTGTTGCAC (site CGGTCCTCTGC) | 0.209
CGGGCCTCTTGGGTTCTAACCTGTTGCTC (site CGGGCCTCTAA) | 0.752
CGGGCCTCTTGGGTTCTAACCTGTTGCTC (site CGGGCCTCTCA) | 0.0404
CGGGCCTCTTGGGTTCTAACCTGTTGCTC (site CGGGCCTCTGA) | 1.23
CGGGCCTCTTGGGTTCTAACCTGTTGCTC (site CGGGCCTCTTA) | 0.0944
CGGTACCCTTGGGTTCTAACCTGTTGCGG (site CAGCACCCTCC) | 0.64
CGGTACCCTTGGGTTCTAACCTGTTGCGG (site CGGTACCCTCC) | 3.11
CGGTCCGCTTGGGTTCTAACCTGTTGCCT (site AGATCCGCTAG) | 0.103
CGGTCCGCTTGGGTTCTAACCTGTTGCCT (site CGGTCCGCTAG) | 1.52
CGGTCGCCTTGGGTTCTAACCTGTTGCAT (site CGGTCGCCTAT) | 0.839
CGGTCGCCTTGGGTTCTAACCTGTTGCAT (site CGGTTGCCTAC) | 0.153
CGTAAATCTTGGGTTCTAACCTGTTGCCT (site CGAAAATCTAG) | 0.0185
CGTAAATCTTGGGTTCTAACCTGTTGCCT (site CGCAAATCTAG) | 0.0232
CGTAAATCTTGGGTTCTAACCTGTTGCCT (site CGGAAATCTAG) | 0.15
CGTAAATCTTGGGTTCTAACCTGTTGCCT (site CGTAAATCTAG) | 0.146

Sequence | recombinant barcode read abundance (log10)
CGTACCTCTTGGGTTCTAACCTGTTGCTA (site CGTACCTCTAA) | 0.124
CGTACCTCTTGGGTTCTAACCTGTTGCTA (site CGTACCTCTCA) | 0.123
CGTACCTCTTGGGTTCTAACCTGTTGCTA (site CGTACCTCTGA) | 0.0598
CGTACCTCTTGGGTTCTAACCTGTTGCTA (site CGTACCTCTTA) | 0.166
CGTACCTCTTGGGTTCTAACCTGTTGCTT (site CGTACCTCTAA) | 0.579
CGTACCTCTTGGGTTCTAACCTGTTGCTT (site CGTACCTCTCA) | 0.125
CGTACCTCTTGGGTTCTAACCTGTTGCTT (site CGTACCTCTGA) | 0.406
CGTACCTCTTGGGTTCTAACCTGTTGCTT (site CGTACCTCTTA) | 0.127
CGTACTACTTGGGTTCTAACCTGTTGCAC (site CGTACTACTGT) | 0.0785
CGTACTACTTGGGTTCTAACCTGTTGCAC (site GGTACTACTAT) | 0.128
CGTCAACCTTGGGTTCTAACCTGTTGCCT (site CGTCAACCTAG) | 0.0446
CGTCAACCTTGGGTTCTAACCTGTTGCCT (site CGTCACCCTAG) | 0.117
CGTCAACCTTGGGTTCTAACCTGTTGCCT (site CGTCAGCCTAG) | 0.177
CGTCAACCTTGGGTTCTAACCTGTTGCCT (site CGTCATCCTAG) | 0.115
CGTCACACTTGGGTTCTAACCTGTTGCCT (site CGACACACTAG) | 0.013
CGTCACACTTGGGTTCTAACCTGTTGCCT (site CGCCACACTAG) | 0.107
CGTCACACTTGGGTTCTAACCTGTTGCCT (site CGGCACACTAG) | 0.052
CGTCACACTTGGGTTCTAACCTGTTGCCT (site CGTCACACTAG) | 0.013
CGTCCGACTTGGGTTCTAACCTGTTGCAT (site CGTACGACTAT) | 0.0562
CGTCCGACTTGGGTTCTAACCTGTTGCAT (site CGTCCGACTAT) | 0.113
CGTCCGACTTGGGTTCTAACCTGTTGCAT (site CGTGCGACTAT) | 0.0838
CGTCCGACTTGGGTTCTAACCTGTTGCAT (site CGTTCGACTAT) | 0

Sequence | recombinant barcode read abundance (log10)
CGTCGGGCTTGGGTTCTAACCTGTTGCAG (site CATCGGGCTCT) | 0.367
CGTCGGGCTTGGGTTCTAACCTGTTGCAG (site CCTCGGGCTCT) | 0.107
CGTCGGGCTTGGGTTCTAACCTGTTGCAG (site CGTCGGGCTCT) | 1.38
CGTCGGGCTTGGGTTCTAACCTGTTGCAG (site CTTCGGGCTCT) | 0.258
CGTCTACCTTGGGTTCTAACCTGTTGCCT (site AGTCTACCTAG) | 0.0669
CGTCTACCTTGGGTTCTAACCTGTTGCCT (site CGTCTACCTAG) | 0.333
CGTCTAGCTTGGGTTCTAACCTGTTGCCA (site CGTCTAGCTTG) | 0.0938
CGTCTAGCTTGGGTTCTAACCTGTTGCCA (site CGTGGAGCTTG) | 0.0343
CGTCTGCCTTGGGTTCTAACCTGTTGCCT (site AGTCTGCCTAG) | 0.0222
CGTCTGCCTTGGGTTCTAACCTGTTGCCT (site CGTCTGCCTAG) | 0.0327
CGTCTGCCTTGGGTTCTAACCTGTTGCCT (site GGTCTGCCTAG) | 0.0804
CGTCTGCCTTGGGTTCTAACCTGTTGCCT (site TGTCTGCCTAG) | 0.193
CGTGACCCTTGGGTTCTAACCTGTTGCGG (site CGTGACCCTCC) | 2.34
CGTGACCCTTGGGTTCTAACCTGTTGCGG (site GTGAGAACTTG) | 0.072
CGTGCAGCTTGGGTTCTAACCTGTTGCCT (site CGAGCAGCTAG) | 0.508
CGTGCAGCTTGGGTTCTAACCTGTTGCCT (site CGCGCAGCTAG) | 0.137
CGTGCAGCTTGGGTTCTAACCTGTTGCCT (site CGGGCAGCTAG) | 0.0626
CGTGCAGCTTGGGTTCTAACCTGTTGCCT (site CGTGCAGCTAG) | 0.323
CGTGCGCCTTGGGTTCTAACCTGTTGCCT (site AAACTAGCTCC) | 0.0967
CGTGCGCCTTGGGTTCTAACCTGTTGCCT (site CGTGCGCCTAG) | 0.174
CGTGGTCCTTGGGTTCTAACCTGTTGCGT (site CGTGGTCCTAA) | 0.615
CGTGGTCCTTGGGTTCTAACCTGTTGCGT (site CGTGGTCCTAC) | 2.26

Reference: the supplement of paper PMC11208160
